Assay results as given in ChEMBL document CHEMBL3885861, “Open TG-GATES”.

Species on record: Rattus norvegicus
Assay: Open TG-GATES - Regimen: Single
Format: toxicity, organism-based, Sprague-Dawley
Set-up: regimen Single, gender Male, age 6 weeks
Settings: in vivo, po, 1000 mg/kg, route gavage, dose level Middle; for APTT / Bas / Eos / Fbg / Hb / Ht / Lym / MCH / MCHC / MCV / Mono / Neu / PT / Plat / RBC / Ret / WBC: tissue Blood; for KIDNEY_L / KIDNEY_R / KIDNEY_TOTAL: tissue Kidney; for LIVER: tissue Liver; for A/G / ALP / ALT / AST / BUN / CRE / Ca / Cl / DBIL / GLC / IP / K / LDH / Na / PL / RALB / TBIL / TC / TG / TP / gamma-GTP: tissue Plasma

CC(=O)[C@@]1(O)CC[C@H]2[C@@H]3C=C(Cl)C4=CC(=O)CC[C@]4(C)[C@H]3CC[C@@]21C [CHLORMADINONE]
TERMINAL_BW (3 h): 226.2 g
APTT (3 h): 23.3 s
Bas (3 h): 0%
Eos (3 h): 1%
Fbg (3 h): 302 mg/dL
Hb (3 h): 12.9 g/dL
Ht (3 h): 40.2%
Lym (3 h): 75%
MCH (3 h): 21.2 pg
MCHC (3 h): 32.1%
MCV (3 h): 66.1 fL
Mono (3 h): 2.4%
Neu (3 h): 21.2%
PT (3 h): 15.8 s
Plat (3 h): 112.9 x10_4/uL
RBC (3 h): 608.8 x10_4/ul
Ret (3 h): 9.1%
WBC (3 h): 72.4 x10_2/uL
KIDNEY_L (3 h): 1 g
KIDNEY_R (3 h): 1.1 g
KIDNEY_TOTAL (3 h): 2.1 g
LIVER (3 h): 10.9 g
A/G (3 h): 1.3
ALP (3 h): 1451.2 IU/L
ALT (3 h): 38.8 IU/L
AST (3 h): 74 IU/L
BUN (3 h): 13.8 mg/dL
CRE (3 h): 0.1 mg/dL
Ca (3 h): 11.2 mg/dL
Cl (3 h): 104.6 meq/L
DBIL (3 h): 0 mg/dL
GLC (3 h): 176.4 mg/dL
IP (3 h): 8 mg/dL
K (3 h): 4.3 meq/L
LDH (3 h): 166.6 IU/L
Na (3 h): 141.6 meq/L
PL (3 h): 134.4 mg/dL
RALB (3 h): 3.1 g/dL
TBIL (3 h): 0.028 mg/dL
TC (3 h): 74.4 mg/dL
TG (3 h): 50 mg/dL
TP (3 h): 5.5 g/dL
gamma-GTP (3 h): 2 IU/L
TERMINAL_BW (6 h): 221.4 g
APTT (6 h): 23.3 s
Bas (6 h): 0%
Eos (6 h): 0.2%
Fbg (6 h): 300.8 mg/dL
Hb (6 h): 13 g/dL
Ht (6 h): 40.1%
Lym (6 h): 72.2%
MCH (6 h): 19.8 pg
MCHC (6 h): 32.5%
MCV (6 h): 61.1 fL
Mono (6 h): 1.6%
Neu (6 h): 25.2%
PT (6 h): 15.6 s
Plat (6 h): 119.2 x10_4/uL
RBC (6 h): 655.4 x10_4/ul
Ret (6 h): 8.1%
WBC (6 h): 56.2 x10_2/uL
KIDNEY_L (6 h): 1 g
KIDNEY_R (6 h): 1 g
KIDNEY_TOTAL (6 h): 2 g
LIVER (6 h): 10.3 g
A/G (6 h): 1.2
ALP (6 h): 1445.6 IU/L
ALT (6 h): 43 IU/L
AST (6 h): 73 IU/L
BUN (6 h): 13 mg/dL
CRE (6 h): 0.2 mg/dL
Ca (6 h): 10.8 mg/dL
Cl (6 h): 105.2 meq/L
DBIL (6 h): 0.002 mg/dL
GLC (6 h): 181.2 mg/dL
IP (6 h): 10.2 mg/dL
K (6 h): 4.6 meq/L
LDH (6 h): 143.6 IU/L
Na (6 h): 140.4 meq/L
PL (6 h): 138.2 mg/dL
RALB (6 h): 3.1 g/dL
TBIL (6 h): 0.04 mg/dL
TC (6 h): 81.6 mg/dL
TG (6 h): 27.6 mg/dL
TP (6 h): 5.6 g/dL
gamma-GTP (6 h): 1.6 IU/L
TERMINAL_BW (9 h): 211.4 g
APTT (9 h): 23.8 s
Bas (9 h): 0%
Eos (9 h): 0.2%
Fbg (9 h): 336.2 mg/dL
Hb (9 h): 13.3 g/dL
Ht (9 h): 41.7%
Lym (9 h): 72.4%
MCH (9 h): 20 pg
MCHC (9 h): 32%
MCV (9 h): 62.5 fL
Mono (9 h): 1%
Neu (9 h): 25.6%
PT (9 h): 15.4 s
Plat (9 h): 110.4 x10_4/uL
RBC (9 h): 667.4 x10_4/ul
Ret (9 h): 7.4%
WBC (9 h): 39.5 x10_2/uL
KIDNEY_L (9 h): 1 g
KIDNEY_R (9 h): 1 g
KIDNEY_TOTAL (9 h): 1.9 g
LIVER (9 h): 10.5 g
A/G (9 h): 1.2
ALP (9 h): 1398.6 IU/L
ALT (9 h): 40.2 IU/L
AST (9 h): 74.6 IU/L
BUN (9 h): 13 mg/dL
CRE (9 h): 0.1 mg/dL
Ca (9 h): 10.7 mg/dL
Cl (9 h): 106.2 meq/L
DBIL (9 h): 0.002 mg/dL
GLC (9 h): 188 mg/dL
IP (9 h): 9.1 mg/dL
K (9 h): 4.3 meq/L
LDH (9 h): 157.2 IU/L
Na (9 h): 141.2 meq/L
PL (9 h): 156.2 mg/dL
RALB (9 h): 3.2 g/dL
TBIL (9 h): 0.024 mg/dL
TC (9 h): 84.4 mg/dL
TG (9 h): 81.2 mg/dL
TP (9 h): 5.7 g/dL
gamma-GTP (9 h): 1.2 IU/L
TERMINAL_BW (24 h): 231.1 g
APTT (24 h): 24.4 s
Bas (24 h): 0%
Eos (24 h): 1%
Fbg (24 h): 333.6 mg/dL
Hb (24 h): 13.2 g/dL
Ht (24 h): 40.6%
Lym (24 h): 77.8%
MCH (24 h): 20.5 pg
MCHC (24 h): 32.6%
MCV (24 h): 63 fL
Mono (24 h): 2.2%
Neu (24 h): 18.6%
PT (24 h): 15.5 s
Plat (24 h): 125.6 x10_4/uL
RBC (24 h): 644.6 x10_4/ul
Ret (24 h): 7.9%
WBC (24 h): 130.2 x10_2/uL
KIDNEY_L (24 h): 1 g
KIDNEY_R (24 h): 1.1 g
KIDNEY_TOTAL (24 h): 2.1 g
LIVER (24 h): 12.1 g
A/G (24 h): 1.2
ALP (24 h): 1702.6 IU/L
ALT (24 h): 45.8 IU/L
AST (24 h): 70.8 IU/L
BUN (24 h): 17.8 mg/dL
CRE (24 h): 0.2 mg/dL
Ca (24 h): 11.1 mg/dL
Cl (24 h): 105.8 meq/L
DBIL (24 h): 0 mg/dL
GLC (24 h): 193.4 mg/dL
IP (24 h): 7.8 mg/dL
K (24 h): 4.5 meq/L
LDH (24 h): 184.2 IU/L
Na (24 h): 140.8 meq/L
PL (24 h): 168 mg/dL
RALB (24 h): 3.3 g/dL
TBIL (24 h): 0 mg/dL
TC (24 h): 77.2 mg/dL
TG (24 h): 188.8 mg/dL
TP (24 h): 5.9 g/dL
gamma-GTP (24 h): 1.6 IU/L
